Measurements from BindingDB's records for doi:10.1021/jm00013a009 (Sandoz Pharma, 1995).

Assay: Compound was evaluated for the binding affinity at 5- HT1A receptor

`N=C(N)NN=Cc1c[nH]c2ccc(O)cc12` [(2E)-2-[(5-hydroxy-1H-indol-3-yl)methylene]hydrazinecarboximidamide] showed a Ki of 63 nM.
